Test results reported in PubChem BioAssay (NCI).
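Five concentrations, 48 hours, 96-well plates. TGI: concentration producing complete growth inhibition.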

Legend:
Experiment in all cases: NCI anticancer screen, dose series, 48 h
[1] = system: LOX IMVI melanoma
[2] = system: RPMI-8226 leukemia
[3] = system: SK-MEL-5 melanoma
[4] = system: A498 renal
[5] = system: SN12C renal
[6] = system: SF-268 CNS
[7] = system: NCI-H522 lung
[8] = system: RXF 393 renal
[9] = system: NCI/ADR-RES ovarian
[10] = system: T-47D breast

Compound	TGI [1]	TGI [2]	TGI [3]	TGI [4]	TGI [5]	TGI [6]	TGI [7]	TGI [8]	TGI [9]	TGI [10]
COc1ccc(N2C(=O)C(N3C(=O)C=CC3=O)C2C=O)cc1 (stereo unspecified)	> 100 µM	> 100 µM	> 100 µM	> 100 µM	> 100 µM	> 100 µM	> 100 µM			
CC1(C)CC(=O)C(=CN2C(=O)CNC2=S)C(=O)C1			> 100 µM		> 100 µM	> 100 µM	> 100 µM	> 100 µM	> 100 µM	
O=C1OC(c2ccccc2)=N/C1=C/N1CCCC1C(=O)O (stereo unspecified)	> 100 µM	> 100 µM	> 100 µM	> 100 µM		> 100 µM	> 100 µM	> 100 µM		
CC(C)CC(NC(=O)C(COc1ccc([N+](=O)[O-])cc1)Cc1ccccc1)C(=O)Nc1ccccc1 (stereo unspecified)	> 100 µM	> 100 µM	> 100 µM	72.2 µM	> 100 µM		55.2 µM	41.6 µM	43.3 µM	
C[n+]1c(-c2ccc(/C=N/Nc3ccnc(N/N=C/c4ccc(-c5cn6ccccc6[n+]5C)cc4)n3)cc2)cn2ccccc21		73.3 µM	> 100 µM		> 100 µM	> 100 µM	> 100 µM		> 100 µM	> 100 µM
CC(=O)[C@H]1CCC2[C@@H]3CC=C4C(O)C(OS(=O)(=O)O)CC[C@]4(C)C3CC[C@@]21C (stereo partly specified)	> 100 µM	> 100 µM	> 100 µM	> 100 µM	> 100 µM	> 100 µM	> 100 µM	> 100 µM	> 100 µM	
COC(=O)c1c(C#C[Si](C)(C)C)c(C#C[Si](C)(C)C)c(C#C[Si](C)(C)C)c(C#C[Si](C)(C)C)c1C(=O)OC		> 100 µM	> 100 µM	> 100 µM	> 100 µM	> 100 µM	> 100 µM	> 100 µM	> 100 µM	> 100 µM
Cc1ccc([N+](=O)[O-])cc1NC(=O)C(=O)C1CCC2=C(Sc3ccccc3N2)C1=O (stereo unspecified)	> 100 µM		> 100 µM		> 100 µM	> 100 µM	> 100 µM	> 100 µM	> 100 µM	
CC1(C)Oc2ccc3c(=O)c4ccccc4oc3c2C1C(=O)O (stereo unspecified)			> 100 µM	> 100 µM	> 100 µM	> 100 µM	> 100 µM	> 100 µM	> 100 µM	> 100 µM
COc1cc(-c2[o+]c3cc(O)cc(OC4OC(CO)C(O)C(O)C4O)c3cc2OC2OC(CO)C(O)C(O)C2O)cc(OC)c1O (stereo unspecified)	> 100 µM	> 100 µM	> 100 µM	> 100 µM	> 100 µM	> 100 µM	> 100 µM	> 100 µM		> 100 µM
c1ccc(COc2cccc3cccnc23)cc1	> 100 µM	> 100 µM	> 100 µM		> 100 µM	88.4 µM	> 100 µM	> 100 µM		
O=C(C=P(c1ccccc1)(c1ccccc1)c1ccccc1)c1ccc(-c2ccc(F)cc2F)cc1		4.43 µM	3.55 µM	7.41 µM	5.31 µM	15.5 µM		7.29 µM	13.2 µM	7.58 µM
O=C(/C=C/c1ccccc1)CCc1c(O)c2ccccc2oc1=O	> 100 µM	> 100 µM	> 100 µM	> 100 µM	> 100 µM	> 100 µM	> 100 µM		> 100 µM	> 100 µM
O=C(NCc1ccccc1)c1c(O)c2ccccc2[nH]c1=O	> 100 µM	> 100 µM	> 100 µM	> 100 µM	> 100 µM	> 100 µM	> 100 µM	> 100 µM	> 100 µM	
COc1cc(S(=O)(=O)N/N=C/c2cc(Br)c(O)c(OC)c2)c(OC)cc1NC(C)=O	> 100 µM	> 100 µM	> 100 µM	> 100 µM	> 100 µM			> 100 µM	> 100 µM	> 100 µM
CSC1NNC2(C(=O)N1)c1ccccc1-c1ccccc12 (stereo unspecified)	> 10 µM	> 10 µM	> 10 µM		> 10 µM	> 10 µM	> 10 µM	> 10 µM	> 10 µM	> 10 µM
c1ccc(CNc2ncnc3n[nH]nc23)cc1	> 100 µM		> 100 µM	> 100 µM	> 100 µM		> 100 µM	> 100 µM	> 100 µM	> 100 µM
C=C1CC(OC)(C(O)C(=O)N[C@H]2OCO[C@H]3C2O[C@H](C[C@H](O)COC)C(C)(C)C3OC)O[C@H](C)[C@@H]1C (stereo partly specified)		> 0.00772 µM	> 0.00772 µM	> 0.00772 µM	> 0.00772 µM	> 0.00772 µM	> 0.00772 µM	> 0.00772 µM	> 0.00772 µM	
Cc1nnc(CC#N)n1NC(=O)CC#N	> 100 µM		> 100 µM	> 100 µM	> 100 µM	> 100 µM	> 100 µM	> 100 µM	> 100 µM	> 100 µM
CC1(C)O[C@@H](CP(c2cccc3ccccc23)c2cccc3ccccc23)[C@H](CP(c2cccc3ccccc23)c2cccc3ccccc23)O1	> 100 µM		> 100 µM		> 100 µM	> 100 µM	> 100 µM	> 100 µM	> 100 µM	> 100 µM
COC(=O)C(C(=O)OC)C1CC(=O)c2c(Br)sc(Br)c21 (stereo unspecified)	26.7 µM	26.4 µM	28.3 µM	> 100 µM	32.4 µM	52.8 µM		84.4 µM	37.1 µM	> 100 µM
COc1cc(C2(C)SCCCS2)c(I)c(OC)c1OC	> 100 µM	> 100 µM	> 100 µM	> 100 µM	> 100 µM	> 100 µM	> 100 µM			
Oc1ccc2ccccc2c1OCc1nnc(CCCCCCCCc2nnc(COc3c(O)ccc4ccccc34)o2)o1		> 100 µM	> 100 µM	> 100 µM	> 100 µM	> 100 µM	> 100 µM	> 100 µM	> 100 µM	
O=c1c(-c2ccc(O)cc2)coc2cc(O)cc(O)c12		> 100 µM	> 100 µM		> 100 µM	> 100 µM	> 100 µM		> 100 µM	> 100 µM
